Measurements as given in patent publication US11439980B2, “Contaminant-activated photocatalysis” (UNIVERSITY OF FLORIDA RESEARCH FOUNDATION, INC., priority 2016, dated 2022).

Columns and labels:
[1] = Photocatalytic degradation of Mordant Orange on coated tiles under visible light; settings: MO on anatase coating, N=4
Experimental: (§1) Photocatalytic coating formulation was prepared by adding 10 mg of anatase (A7) to 10 mL of dilute NaOH (pH=9.5) in a 20 mL scintillation vial wrapped with aluminum foil. The suspension was sonicated (Misonix Sonicator 3000, Farmingdale, NY) at the highest power level providing 180-200 W for 30 minutes total (10 min on/2 min off×3). Similarly, rutile (R22) and silica (S15) coating formulations were prepared without exposing to visible light. In case of anatase+PHF, the anatase suspension was sonicated for 30 minutes followed by addition of 1 mL of a PHF solution (1000 or 100 mg/L). The nanocomposites suspension was mixed with a magnetic stirrer for 10 minutes in dark.
(§2) Ceramic tiles were utilized to evaluate the photocatalytic degradation of organic dye and inactivation of microbes. […]
(§3) The photocatalytic experiments were carried out under fluorescent lamps (General Electric model T8 Ultramax F28T8-SPX41) at visible light irradiance of 1.8-2.0 W/m^2. […] The visible light and UVA irradiances were measured with a PMA 2140 Global detector or a PMA 2110 UVA detector attached to a PMA2110 meter (Solar Light Co., Glenside, Pa.).
(§4) The temporal changes in dye concentration were determined by measuring the absorbance after predetermined times of exposure to visible light. The inactivation of S. aureus was evaluated by determining the viable counts after exposure to visible light. […]

[2] = Photocatalytic degradation of Procion Red on coated tiles under visible light; settings: PR on anatase coating, N=4
Experimental: as §1, §2, §3, §4

| Substance | overall pseudo first order degradation rate [1] [h⁻¹] | overall pseudo first order degradation rate [2] [h⁻¹] |
| --- | --- | --- |
| Mordant Orange | 0.01 |  |
| Procion Red |  | 0.023 |
